What was measured:
Test in all cases: biochemical
Design in all cases: Invitrogen kinase panel: Z'Lyte activity (ATP at Km) or LanthaScreen competitive ATP-site binding, percent inhibition
ACVR1B = ACVR1B (Homo sapiens, UniProt P36896)
BrSK1 = BrSK1 (Homo sapiens, UniProt Q8TDC3)
CDK7/cyclinH = CDK7/cyclinH (Homo sapiens, UniProt P50613)
CK1_epsilon1 = molecular target: T1, CK1_epsilon1 (Homo sapiens, UniProt P49674)
T1 construct: gene CSNK1E; epsilon 1

CLK2 = CLK2 (Homo sapiens, UniProt P49760)
Chain of CLK2 (P49760 whole entry): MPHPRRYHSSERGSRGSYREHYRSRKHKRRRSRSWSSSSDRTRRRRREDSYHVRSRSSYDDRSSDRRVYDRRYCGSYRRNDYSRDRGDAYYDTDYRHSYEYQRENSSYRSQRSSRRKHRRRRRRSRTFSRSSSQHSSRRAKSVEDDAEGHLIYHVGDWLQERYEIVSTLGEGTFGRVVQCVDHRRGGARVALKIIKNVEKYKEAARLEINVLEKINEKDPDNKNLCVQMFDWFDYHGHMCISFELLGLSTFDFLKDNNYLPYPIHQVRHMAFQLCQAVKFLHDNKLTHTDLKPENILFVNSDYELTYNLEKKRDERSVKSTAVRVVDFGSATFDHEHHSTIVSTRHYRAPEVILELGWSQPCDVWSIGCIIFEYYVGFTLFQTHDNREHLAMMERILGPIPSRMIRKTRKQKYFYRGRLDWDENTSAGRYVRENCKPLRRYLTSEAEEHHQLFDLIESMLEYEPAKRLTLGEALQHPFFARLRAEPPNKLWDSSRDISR

CamKII_alpha = molecular target: T2, CamKII_alpha (Homo sapiens, UniProt Q9UQM7)
T2 construct: gene CAMK2A

EphA3 = EphA3 (Homo sapiens, UniProt P29320)
Chain of EphA3 (P29320 whole entry): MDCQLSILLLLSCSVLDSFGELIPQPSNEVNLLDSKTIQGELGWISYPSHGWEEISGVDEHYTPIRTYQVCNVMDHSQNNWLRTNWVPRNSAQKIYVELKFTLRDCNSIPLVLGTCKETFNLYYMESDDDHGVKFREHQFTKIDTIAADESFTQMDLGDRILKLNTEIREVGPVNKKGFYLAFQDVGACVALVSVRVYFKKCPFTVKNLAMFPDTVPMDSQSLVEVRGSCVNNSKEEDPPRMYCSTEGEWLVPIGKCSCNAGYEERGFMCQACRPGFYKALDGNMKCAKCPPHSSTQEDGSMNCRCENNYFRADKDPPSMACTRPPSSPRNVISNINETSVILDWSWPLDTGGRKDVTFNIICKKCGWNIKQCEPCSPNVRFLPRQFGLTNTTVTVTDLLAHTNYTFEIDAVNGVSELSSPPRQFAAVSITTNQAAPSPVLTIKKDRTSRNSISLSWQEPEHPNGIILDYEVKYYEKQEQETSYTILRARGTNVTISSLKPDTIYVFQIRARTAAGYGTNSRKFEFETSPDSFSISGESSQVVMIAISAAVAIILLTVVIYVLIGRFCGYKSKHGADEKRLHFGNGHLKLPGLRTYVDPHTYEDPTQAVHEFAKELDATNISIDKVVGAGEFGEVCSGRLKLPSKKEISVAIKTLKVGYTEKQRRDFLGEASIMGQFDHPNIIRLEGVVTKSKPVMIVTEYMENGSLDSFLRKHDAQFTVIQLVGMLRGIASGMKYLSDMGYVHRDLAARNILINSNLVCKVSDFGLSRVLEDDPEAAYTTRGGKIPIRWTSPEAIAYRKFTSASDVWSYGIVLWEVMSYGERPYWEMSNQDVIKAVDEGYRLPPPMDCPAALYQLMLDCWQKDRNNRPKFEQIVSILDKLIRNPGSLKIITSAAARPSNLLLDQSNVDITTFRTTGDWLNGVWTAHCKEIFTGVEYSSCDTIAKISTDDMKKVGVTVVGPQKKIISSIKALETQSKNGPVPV

Flt4 = Flt4 (Homo sapiens, UniProt P35916)
Chain of Flt4 (P35916 whole entry): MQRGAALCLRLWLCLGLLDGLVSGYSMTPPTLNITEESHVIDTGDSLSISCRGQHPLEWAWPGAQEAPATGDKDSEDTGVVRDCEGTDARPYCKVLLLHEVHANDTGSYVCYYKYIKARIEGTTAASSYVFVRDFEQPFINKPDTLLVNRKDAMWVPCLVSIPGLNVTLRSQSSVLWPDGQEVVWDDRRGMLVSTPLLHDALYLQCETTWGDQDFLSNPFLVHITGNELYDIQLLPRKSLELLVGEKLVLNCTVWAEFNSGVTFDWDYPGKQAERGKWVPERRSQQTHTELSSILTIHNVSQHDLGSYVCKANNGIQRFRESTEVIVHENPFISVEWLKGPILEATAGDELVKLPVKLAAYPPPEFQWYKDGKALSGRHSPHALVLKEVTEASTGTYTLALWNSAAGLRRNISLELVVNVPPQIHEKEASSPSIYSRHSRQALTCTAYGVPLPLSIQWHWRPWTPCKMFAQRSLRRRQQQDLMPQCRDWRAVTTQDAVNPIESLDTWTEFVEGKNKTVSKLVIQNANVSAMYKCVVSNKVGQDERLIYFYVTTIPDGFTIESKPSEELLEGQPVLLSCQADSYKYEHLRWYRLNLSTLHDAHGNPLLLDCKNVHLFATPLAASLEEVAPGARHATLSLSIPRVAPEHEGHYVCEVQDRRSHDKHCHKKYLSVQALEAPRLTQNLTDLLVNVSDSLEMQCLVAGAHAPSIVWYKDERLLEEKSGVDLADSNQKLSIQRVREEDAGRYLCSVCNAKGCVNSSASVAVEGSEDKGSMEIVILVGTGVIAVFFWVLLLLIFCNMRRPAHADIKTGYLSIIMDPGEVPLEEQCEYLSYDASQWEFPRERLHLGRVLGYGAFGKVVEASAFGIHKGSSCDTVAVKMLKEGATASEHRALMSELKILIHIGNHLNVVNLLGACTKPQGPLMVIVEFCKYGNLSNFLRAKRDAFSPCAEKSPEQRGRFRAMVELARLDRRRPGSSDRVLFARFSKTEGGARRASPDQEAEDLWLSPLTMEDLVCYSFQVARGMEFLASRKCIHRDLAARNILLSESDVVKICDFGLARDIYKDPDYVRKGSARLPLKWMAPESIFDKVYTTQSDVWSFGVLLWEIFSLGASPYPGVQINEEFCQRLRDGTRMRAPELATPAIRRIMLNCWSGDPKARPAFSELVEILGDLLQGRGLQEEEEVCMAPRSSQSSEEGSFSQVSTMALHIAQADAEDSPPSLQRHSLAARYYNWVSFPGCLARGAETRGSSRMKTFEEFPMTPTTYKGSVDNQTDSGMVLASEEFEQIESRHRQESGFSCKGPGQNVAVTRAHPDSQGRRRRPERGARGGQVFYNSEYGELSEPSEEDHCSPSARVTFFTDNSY

GRK3 = GRK3 (Homo sapiens, UniProt P35626)
IRAK1 = IRAK1 (Homo sapiens, UniProt P51617)
MAP4K4 = MAP4K4 (Homo sapiens, UniProt O95819)
MRCK_alpha = molecular target: T3, MRCK_alpha (Homo sapiens, UniProt Q5VT25)
T3 construct: gene CDC42BPA

MSK1 = molecular target: T4, MSK1 (Homo sapiens, UniProt O75582)
T4 construct: gene RPS6KA5

PAK6 = PAK6 (Homo sapiens, UniProt Q9NQU5)
PDK1(direct) = molecular target: T5, PDK1(direct) (Homo sapiens, UniProt O15530)
T5 construct: gene PDPK1; direct

PKC_alpha = molecular target: T6, PKC_alpha (Homo sapiens, UniProt P17252)
T6 construct: gene PRKCA

PKC_delta = molecular target: T7, PKC_delta (Homo sapiens, UniProt Q05655)
T7 construct: gene PRKCD

PKC_epsilon = molecular target: T8, PKC_epsilon (Homo sapiens, UniProt Q02156)
T8 construct: gene PRKCE

PLK3 = PLK3 (Homo sapiens, UniProt Q9H4B4)
PRK1 = molecular target: T9, PRK1 (Homo sapiens, UniProt Q16512)
T9 construct: gene PKN1

Rsk3 = molecular target: T10, Rsk3 (Homo sapiens, UniProt Q15349)
T10 construct: gene RPS6KA2

STK16 = STK16 (Homo sapiens, UniProt O75716)
Chain of STK16 (O75716 whole entry): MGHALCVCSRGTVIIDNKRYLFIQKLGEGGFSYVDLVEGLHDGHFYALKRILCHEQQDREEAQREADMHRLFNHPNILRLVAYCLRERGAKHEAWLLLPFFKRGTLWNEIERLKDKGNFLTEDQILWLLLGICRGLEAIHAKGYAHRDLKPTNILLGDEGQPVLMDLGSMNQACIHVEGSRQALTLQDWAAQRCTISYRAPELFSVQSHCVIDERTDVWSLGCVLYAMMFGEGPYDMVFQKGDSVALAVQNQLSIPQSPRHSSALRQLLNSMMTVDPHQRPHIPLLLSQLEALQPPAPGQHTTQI

TGFBR1 = TGFBR1 (Homo sapiens, UniProt P36897)
TXK = TXK (Homo sapiens, UniProt P42681)
mTOR = mTOR (Homo sapiens, UniProt P42345)

T1 sequence (P49674 whole entry): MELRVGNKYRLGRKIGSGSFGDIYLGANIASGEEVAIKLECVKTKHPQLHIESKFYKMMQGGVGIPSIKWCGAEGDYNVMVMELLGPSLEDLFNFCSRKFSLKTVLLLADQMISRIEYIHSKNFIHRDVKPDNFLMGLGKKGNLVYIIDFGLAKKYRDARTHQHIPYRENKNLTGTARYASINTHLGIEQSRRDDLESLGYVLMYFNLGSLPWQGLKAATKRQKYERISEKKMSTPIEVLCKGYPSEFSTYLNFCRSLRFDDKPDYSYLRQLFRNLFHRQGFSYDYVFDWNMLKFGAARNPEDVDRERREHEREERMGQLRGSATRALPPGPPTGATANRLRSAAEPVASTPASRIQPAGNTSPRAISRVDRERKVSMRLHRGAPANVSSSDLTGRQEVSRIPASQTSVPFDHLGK
Chain of CDK7/cyclinH (P50613 whole entry): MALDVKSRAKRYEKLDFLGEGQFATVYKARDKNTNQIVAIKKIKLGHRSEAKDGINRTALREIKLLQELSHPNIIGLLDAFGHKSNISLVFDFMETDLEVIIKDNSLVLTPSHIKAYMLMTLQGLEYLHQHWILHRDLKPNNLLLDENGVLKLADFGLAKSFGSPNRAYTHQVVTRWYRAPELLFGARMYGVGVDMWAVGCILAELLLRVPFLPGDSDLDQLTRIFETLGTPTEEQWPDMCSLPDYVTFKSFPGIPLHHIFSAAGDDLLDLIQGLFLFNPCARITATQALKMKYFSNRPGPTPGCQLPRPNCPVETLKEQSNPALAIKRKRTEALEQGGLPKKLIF
Chain of CDK7/cyclinH (P51946 whole entry partner): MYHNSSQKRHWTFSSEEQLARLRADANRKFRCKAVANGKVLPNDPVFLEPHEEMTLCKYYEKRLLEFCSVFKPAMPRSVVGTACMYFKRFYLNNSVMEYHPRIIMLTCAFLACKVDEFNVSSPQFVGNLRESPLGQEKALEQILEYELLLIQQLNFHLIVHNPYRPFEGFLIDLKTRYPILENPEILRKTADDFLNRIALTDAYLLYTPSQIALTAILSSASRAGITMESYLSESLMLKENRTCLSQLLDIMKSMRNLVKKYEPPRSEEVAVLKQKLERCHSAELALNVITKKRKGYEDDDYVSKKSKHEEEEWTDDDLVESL

Row | SMILES | inhibition at 1 µM (ACVR1B) [%] | inhibition at 1 µM (BrSK1) [%] | inhibition at 1 µM (CDK7/cyclinH) [%] | inhibition at 1 µM (CK1_epsilon1) [%] | inhibition at 1 µM (CLK2) [%] | inhibition at 1 µM (CamKII_alpha) [%] | inhibition at 1 µM (EphA3) [%] | inhibition at 1 µM (Flt4) [%] | inhibition at 1 µM (GRK3) [%] | inhibition at 1 µM (IRAK1) [%] | inhibition at 1 µM (MAP4K4) [%] | inhibition at 1 µM (MRCK_alpha) [%] | inhibition at 1 µM (MSK1) [%] | inhibition at 1 µM (PAK6) [%] | inhibition at 1 µM (PDK1(direct)) [%] | inhibition at 1 µM (PKC_alpha) [%] | inhibition at 1 µM (PKC_delta) [%] | inhibition at 1 µM (PKC_epsilon) [%] | inhibition at 1 µM (PLK3) [%] | inhibition at 1 µM (PRK1) [%] | other results
1 | CCOC(=O)Nc1cccc2c(Oc3ncccc3-c3ccnc(N[C@H]4CCCNC4)n3)c(C)ccc12 [G-1749] | 3 | 6.5 | 4.5 | 37 | 18.5 | -17.5 | 1 | 5.5 | -1 | 9 | 31 | 4.5 | -3 | 12.5 | 5 | 1.5 | 12 | 14.5 | -5 | 0 | inhibition at 1 µM (Rsk3): 10%; inhibition at 1 µM (STK16): -5.5%; inhibition at 1 µM (TGFBR1): 5.5%; inhibition at 1 µM (TXK): 2%; inhibition at 1 µM (mTOR): 5%
2 | CC#CC(=O)Nc1cccc2c(Oc3ncccc3-c3ccnc(N[C@H]4CCCNC4)n3)c(C)ccc12 [G-7658] | -0.5 | 4.5 | 7.5 | 36 | 23 | -16 | 4.5 | 6.5 | -1.5 | 11.5 | 21.5 | 5 | -6 | 11 | 3.5 | 4 | 15 | 9.5 | -2.5 | -1.5 | inhibition at 1 µM (Rsk3): 9%; inhibition at 1 µM (STK16): -9%; inhibition at 1 µM (TGFBR1): 7.5%; inhibition at 1 µM (TXK): 2%; inhibition at 1 µM (mTOR): 7%
